Where two headings read alike, the source gives them in different places.
What was measured:
[1] = MTX polyglutamates 1 to 5 in red blood cells, MIRROR OL; assay type: in vivo, human; conditions: during the treatment course; FIG. 2
Method: Blood samples were collected prior to pegloticase infusion on Day 1 and at the Weeks 4, 8, 22 and 36 Visits or at Day 1 and weeks 14, 24, and 36 visits during the Pegloticase+IMM for MTX Polyglutamate analysis for the open-label and randomized studies, respectively.
Methods: In the MIRROR OL trial, MTX (15 mg/week) was given orally 4 weeks prior to the first pegloticase dose and continued weekly, in combination with pegloticase 8 mg given intravenously every 2 weeks, for a treatment duration of up to 52 weeks. Pre-infusion samples were collected to measure MTX-PGs 1 to 5 in red blood cells at day 1, week 4, 8, 22, 24 and 36. […] Pegloticase concentrations in serum was measured using a validated enzymatic/fluorescence assay. The limit of quantification is 0.6 μg/mL. Anti-pegloticase/PEG IgG antibodies (ADA) were measured using a validated enzyme linked immunosorbent assay (ELISA). The analysis of MTX Polyglutamates was conducted by Exagen. The impact of MTX on pegloticase PK was evaluated by two methods: (1) Comparing pegloticase exposures (median Cmax and Cmin across visits) with MTX from the MIRROR OL trial to the observed levels in historical monotherapy Phase 3 studies (C0405 and C0406) (Lipsky et al., Arthritis Res Ther 16(2), 2014; Sundy et al., JAMA 306(7), 2011). […]

[2] = tested on: adult patients with uncontrolled gout; conditions: human, in vivo

With `CN(Cc1cnc2nc(N)nc(N)c2n1)c1ccc(C(=O)N[C@@H](CCC(=O)O)C(=O)O)cc1` [MTX, methotrexate] as the molecule, how does the “Concentrations of MTX-PGs” value [1] read?
Its value is “maintained”.

What about the “Number of gout flares among subjects with at least one gout flare, Mean (SD)” value [2] of the same molecule?
Its value is 1.2.

And the “Number of gout flares among subjects with at least one gout flare, Median” value [2]?
The value was 1.0.

What about the “Any Gout Flares Since the Last Visit, %” value ([2]; 1 day) of the same molecule?
The value was “(57.1) %”.

What about the “Maximum Reported Intensity of Flare (0-10 scale), Mean” value ([2]; 1 day) of the same molecule?
The value was 5.8.

And the “Maximum Reported Intensity of Flare (0-10 scale), Median” value ([2]; 1 day)?
The value was 5.5.

What about the “Maximum Reported Intensity of Flare (0-10 scale), Min, Max” value ([2]; 1 day) of the same molecule?
Its value is 4, 8.

What about the “Pain at rest > 3 out of 10, %” value ([2]; 1 day) of the same molecule?
Its value is “(57.1) %”.

What about the “Pain different than normal, %” value ([2]; 1 day) of the same molecule?
The value was “(50.0) %”.

And the “Swelling in Joints, %” value ([2]; 1 day)?
Its value is “(42.9) %”.

And the “Maximum Reported Intensity of Flare (0-10 scale), Median” value ([2]; -4 week)?
The value was 8.0.

And the “Maximum Reported Intensity of Flare (0-10 scale), Min, Max” value ([2]; -4 week)?
Its value is 7, 10.

From patent US20220409620A1, “REDUCING IMMUNOGENICITY TO PEGLOTICASE” (Horizon Pharma Rheumatology LLC, priority 2016, published 2022)
